{"source": "ChEMBL document CHEMBL2163222", "about": "(J Med Chem, 2012)", "key": {"cells": {"test": "cells", "settings": "Homo sapiens, U373 MG, 72 h"}, "OE33": {"test_system": "OE33", "test": "Growth inhibition of human OE33 cells after 3 days by MTT assay", "format": "functional, cell-based", "settings": "OE33, 72 h"}, "[1]": {"test": "Cytostatic activity in human U373 cells at 24 uM assessed global growth ratio after 72 hrs by quantitative video microscopy", "format": "functional, U-373MG ATCC"}, "Hs 683 [2]": {"test_system": "Hs 683", "test": "cells", "settings": "Homo sapiens, Hs 683, 72 h"}, "[3]": {"test": "Growth inhibition of human OE21 cells after 3 days by MTT assay", "format": "functional, cell-based", "settings": "OE21, 72 h"}, "[4]": {"molecular_target": "Dual specificity tyrosine-phosphorylation-regulated kinase 1A (Homo sapiens, UniProt Q13627)", "test": "Inhibition of DYRK1A kinase using RBER-CHKtide substrate by radiometric protein kinase assay"}, "T98G": {"test_system": "T98G", "test": "cells", "settings": "Homo sapiens, 72 h"}, "[5]": {"molecular_target": "TGF-beta receptor type-1 (Homo sapiens) (UniProt P36897)", "test": "Inhibition of TGFB-R1 assessed as residual enzyme activity at 10 uM by radiometric protein kinase assay"}, "[6]": {"molecular_target": "Serine/threonine-protein kinase 17A (Homo sapiens) (UniProt Q9UEE5)", "sequence (Q9UEE5 whole entry)": "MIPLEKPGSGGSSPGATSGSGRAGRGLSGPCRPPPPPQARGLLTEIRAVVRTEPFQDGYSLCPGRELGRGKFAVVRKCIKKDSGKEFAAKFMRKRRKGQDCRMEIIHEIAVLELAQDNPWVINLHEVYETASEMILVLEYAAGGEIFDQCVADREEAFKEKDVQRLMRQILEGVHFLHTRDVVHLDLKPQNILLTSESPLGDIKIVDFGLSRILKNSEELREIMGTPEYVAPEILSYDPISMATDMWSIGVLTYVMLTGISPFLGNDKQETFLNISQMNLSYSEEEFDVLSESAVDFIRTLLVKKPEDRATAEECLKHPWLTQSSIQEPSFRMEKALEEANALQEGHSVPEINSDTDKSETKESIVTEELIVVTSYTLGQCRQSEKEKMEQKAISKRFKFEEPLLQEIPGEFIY", "test": "Inhibition of STK17A assessed as residual enzyme activity at 10 uM by radiometric protein kinase assay"}, "[7]": {"test": "Cytostatic activity in human U373 cells at 0.9 uM assessed global growth ratio after 72 hrs by quantitative video microscopy", "format": "functional, U-373MG ATCC"}, "[8]": {"molecular_target": "Myosin light chain kinase 2, skeletal/cardiac muscle (Homo sapiens) (UniProt Q9H1R3)", "sequence (Q9H1R3 whole entry)": "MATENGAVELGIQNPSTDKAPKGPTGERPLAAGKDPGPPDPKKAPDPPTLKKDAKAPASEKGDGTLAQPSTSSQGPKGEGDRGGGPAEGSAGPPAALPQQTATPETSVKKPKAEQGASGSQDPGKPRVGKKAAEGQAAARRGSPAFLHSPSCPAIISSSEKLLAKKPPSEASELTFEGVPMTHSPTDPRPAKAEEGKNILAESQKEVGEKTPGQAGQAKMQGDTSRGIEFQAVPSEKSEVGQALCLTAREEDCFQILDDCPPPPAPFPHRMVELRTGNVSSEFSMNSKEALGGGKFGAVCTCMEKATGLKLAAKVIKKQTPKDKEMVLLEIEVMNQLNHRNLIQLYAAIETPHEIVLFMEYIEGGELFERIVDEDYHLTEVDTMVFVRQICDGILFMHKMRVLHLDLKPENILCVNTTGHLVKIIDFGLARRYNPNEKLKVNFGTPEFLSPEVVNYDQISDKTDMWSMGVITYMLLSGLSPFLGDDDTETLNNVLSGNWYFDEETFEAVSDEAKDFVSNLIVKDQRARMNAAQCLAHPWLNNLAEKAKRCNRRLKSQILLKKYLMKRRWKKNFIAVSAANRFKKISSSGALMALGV", "test": "Inhibition of MYLK2 assessed as residual enzyme activity at 10 uM by radiometric protein kinase assay"}, "[9]": {"molecular_target": "Tyrosine-protein kinase Tec (Homo sapiens) (UniProt P42680)", "sequence (P42680 whole entry)": "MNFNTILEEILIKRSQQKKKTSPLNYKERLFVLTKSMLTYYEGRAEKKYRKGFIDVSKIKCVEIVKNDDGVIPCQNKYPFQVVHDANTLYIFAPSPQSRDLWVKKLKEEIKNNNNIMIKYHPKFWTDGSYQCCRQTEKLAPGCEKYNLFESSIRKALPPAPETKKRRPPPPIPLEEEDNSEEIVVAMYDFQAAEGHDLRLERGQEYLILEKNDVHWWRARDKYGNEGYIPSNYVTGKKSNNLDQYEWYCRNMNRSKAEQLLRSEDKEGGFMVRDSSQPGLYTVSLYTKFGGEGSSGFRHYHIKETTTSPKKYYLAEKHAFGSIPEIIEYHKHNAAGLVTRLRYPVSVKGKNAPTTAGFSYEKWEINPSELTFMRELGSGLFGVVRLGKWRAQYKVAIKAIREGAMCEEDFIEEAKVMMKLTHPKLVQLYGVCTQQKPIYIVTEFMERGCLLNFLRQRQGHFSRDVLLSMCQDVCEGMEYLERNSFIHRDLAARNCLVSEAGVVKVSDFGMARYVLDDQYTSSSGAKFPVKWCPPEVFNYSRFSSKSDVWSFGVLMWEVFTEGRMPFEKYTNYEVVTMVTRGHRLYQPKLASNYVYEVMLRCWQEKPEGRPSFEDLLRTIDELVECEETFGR", "test": "Inhibition of TEC assessed as residual enzyme activity at 10 uM by radiometric protein kinase assay"}, "[10]": {"molecular_target": "Calcium/calmodulin-dependent protein kinase type II subunit alpha (Homo sapiens) (UniProt Q9UQM7)", "sequence (Q9UQM7 whole entry)": "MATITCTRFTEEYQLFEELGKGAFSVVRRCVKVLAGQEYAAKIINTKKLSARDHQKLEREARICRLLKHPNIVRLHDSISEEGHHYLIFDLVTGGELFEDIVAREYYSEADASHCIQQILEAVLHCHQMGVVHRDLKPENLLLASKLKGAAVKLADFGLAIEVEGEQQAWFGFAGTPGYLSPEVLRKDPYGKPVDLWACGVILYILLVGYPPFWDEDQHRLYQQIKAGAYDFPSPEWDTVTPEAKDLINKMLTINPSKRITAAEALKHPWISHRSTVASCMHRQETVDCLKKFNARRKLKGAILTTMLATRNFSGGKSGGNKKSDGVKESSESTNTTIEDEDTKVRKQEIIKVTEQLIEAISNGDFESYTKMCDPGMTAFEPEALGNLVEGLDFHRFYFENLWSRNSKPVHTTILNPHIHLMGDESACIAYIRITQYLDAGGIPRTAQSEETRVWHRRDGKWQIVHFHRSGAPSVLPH", "test": "Inhibition of CAMK2A assessed as residual enzyme activity at 10 uM by radiometric protein kinase assay"}, "[11]": {"molecular_target": "Myosin light chain kinase, smooth muscle (Homo sapiens) (UniProt Q15746)", "sequence (Q15746 whole entry)": "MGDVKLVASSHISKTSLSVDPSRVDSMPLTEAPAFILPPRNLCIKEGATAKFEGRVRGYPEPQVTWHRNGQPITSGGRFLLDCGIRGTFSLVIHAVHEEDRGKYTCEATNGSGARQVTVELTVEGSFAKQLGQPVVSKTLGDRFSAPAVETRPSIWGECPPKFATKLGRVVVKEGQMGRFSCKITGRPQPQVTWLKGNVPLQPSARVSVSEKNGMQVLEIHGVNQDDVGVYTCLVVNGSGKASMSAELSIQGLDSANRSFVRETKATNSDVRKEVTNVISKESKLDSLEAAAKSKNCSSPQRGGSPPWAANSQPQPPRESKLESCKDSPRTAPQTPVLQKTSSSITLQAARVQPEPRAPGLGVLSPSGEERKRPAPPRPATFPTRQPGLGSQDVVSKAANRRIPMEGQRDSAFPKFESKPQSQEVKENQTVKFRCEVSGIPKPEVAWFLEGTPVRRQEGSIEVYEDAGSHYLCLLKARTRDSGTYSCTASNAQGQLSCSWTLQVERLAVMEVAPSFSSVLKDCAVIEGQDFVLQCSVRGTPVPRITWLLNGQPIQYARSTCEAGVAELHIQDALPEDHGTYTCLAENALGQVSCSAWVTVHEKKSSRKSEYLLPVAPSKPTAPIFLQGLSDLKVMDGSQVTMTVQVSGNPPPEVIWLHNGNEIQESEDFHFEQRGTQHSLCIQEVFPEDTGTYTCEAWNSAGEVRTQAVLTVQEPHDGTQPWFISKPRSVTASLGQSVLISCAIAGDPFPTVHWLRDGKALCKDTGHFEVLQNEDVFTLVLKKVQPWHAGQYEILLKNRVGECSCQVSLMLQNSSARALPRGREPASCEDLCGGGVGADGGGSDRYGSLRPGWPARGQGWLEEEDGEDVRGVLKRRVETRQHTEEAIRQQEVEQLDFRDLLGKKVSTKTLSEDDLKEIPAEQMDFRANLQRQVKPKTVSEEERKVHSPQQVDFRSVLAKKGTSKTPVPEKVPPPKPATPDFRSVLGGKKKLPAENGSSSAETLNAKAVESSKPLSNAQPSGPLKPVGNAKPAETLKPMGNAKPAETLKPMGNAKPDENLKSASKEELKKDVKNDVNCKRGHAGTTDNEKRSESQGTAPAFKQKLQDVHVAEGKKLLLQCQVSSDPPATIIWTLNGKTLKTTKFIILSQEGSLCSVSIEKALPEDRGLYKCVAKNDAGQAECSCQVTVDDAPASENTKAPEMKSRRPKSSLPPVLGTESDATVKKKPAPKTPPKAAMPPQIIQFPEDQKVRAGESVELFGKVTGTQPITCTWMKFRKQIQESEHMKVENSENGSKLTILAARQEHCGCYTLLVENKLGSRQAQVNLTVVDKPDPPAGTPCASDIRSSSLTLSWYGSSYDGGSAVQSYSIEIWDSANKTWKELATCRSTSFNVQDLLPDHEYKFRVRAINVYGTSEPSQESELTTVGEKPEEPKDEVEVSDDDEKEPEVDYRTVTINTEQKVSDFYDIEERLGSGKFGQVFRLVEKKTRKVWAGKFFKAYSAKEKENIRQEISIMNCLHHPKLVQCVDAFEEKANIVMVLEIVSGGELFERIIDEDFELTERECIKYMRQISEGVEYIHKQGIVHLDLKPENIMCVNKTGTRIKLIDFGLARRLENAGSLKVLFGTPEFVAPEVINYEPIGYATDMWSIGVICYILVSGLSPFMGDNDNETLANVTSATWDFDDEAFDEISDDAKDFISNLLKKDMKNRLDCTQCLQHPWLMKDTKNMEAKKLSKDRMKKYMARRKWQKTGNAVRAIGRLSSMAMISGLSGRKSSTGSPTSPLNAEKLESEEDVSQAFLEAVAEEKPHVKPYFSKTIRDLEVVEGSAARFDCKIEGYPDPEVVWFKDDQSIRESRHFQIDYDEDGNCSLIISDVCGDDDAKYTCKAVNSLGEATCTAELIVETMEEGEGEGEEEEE", "test": "Inhibition of MYLK assessed as residual enzyme activity at 10 uM by radiometric protein kinase assay"}, "[12]": {"molecular_target": "MAP kinase-interacting serine/threonine-protein kinase 1 (Homo sapiens) (UniProt Q9BUB5)", "test": "Inhibition of MKNK1 assessed as residual enzyme activity at 10 uM by radiometric protein kinase assay"}, "[13]": {"molecular_target": "Tyrosine-protein kinase CSK (Homo sapiens) (UniProt P41240)", "test": "Inhibition of CSK assessed as residual enzyme activity at 10 uM by radiometric protein kinase assay"}, "U-373MG ATCC": {"test_system": "U-373MG ATCC", "test": "Inhibition of eIF2 activity in human U373 cells at 1 uM after 4 hrs by Western blotting method", "format": "functional, cell-based"}, "[14]": {"test": "Inhibition of eIF2 protein expression in human U373 cells at 1 uM after 4 hrs by Western blotting method", "format": "functional, cell-based", "settings": "U-373MG ATCC"}, "[15]": {"molecular_target": "Calcium/calmodulin-dependent protein kinase type II subunit delta (Homo sapiens) (UniProt Q13557)", "test": "Inhibition of CAMK2D assessed as residual enzyme activity at 10 uM by radiometric protein kinase assay"}, "[16]": {"test": "Inhibition of eIF2 protein expression in human Hs683 cells at 5 uM after 4 hrs by Western blotting method", "format": "functional, cell-based", "settings": "Hs 683"}, "Hs 683 [17]": {"test_system": "Hs 683", "test": "Inhibition of eIF2 activity in human Hs683 cells at 5 uM after 4 hrs by Western blotting method", "format": "functional, cell-based"}, "Mus musculus": {"species_on_record": "Mus musculus", "test": "Toxicity in mouse assessed as drug tolerance", "format": "organism-based", "settings": "in vivo"}, "[18]": {"molecular_target": "TGF-beta receptor type-2 (Homo sapiens) (UniProt P37173)", "test": "Inhibition of TGFB-R2 assessed as residual enzyme activity at 10 uM by radiometric protein kinase assay"}, "[19]": {"molecular_target": "Tyrosine-protein kinase Fer (Homo sapiens) (UniProt P16591)", "sequence (P16591 whole entry, looked up)": "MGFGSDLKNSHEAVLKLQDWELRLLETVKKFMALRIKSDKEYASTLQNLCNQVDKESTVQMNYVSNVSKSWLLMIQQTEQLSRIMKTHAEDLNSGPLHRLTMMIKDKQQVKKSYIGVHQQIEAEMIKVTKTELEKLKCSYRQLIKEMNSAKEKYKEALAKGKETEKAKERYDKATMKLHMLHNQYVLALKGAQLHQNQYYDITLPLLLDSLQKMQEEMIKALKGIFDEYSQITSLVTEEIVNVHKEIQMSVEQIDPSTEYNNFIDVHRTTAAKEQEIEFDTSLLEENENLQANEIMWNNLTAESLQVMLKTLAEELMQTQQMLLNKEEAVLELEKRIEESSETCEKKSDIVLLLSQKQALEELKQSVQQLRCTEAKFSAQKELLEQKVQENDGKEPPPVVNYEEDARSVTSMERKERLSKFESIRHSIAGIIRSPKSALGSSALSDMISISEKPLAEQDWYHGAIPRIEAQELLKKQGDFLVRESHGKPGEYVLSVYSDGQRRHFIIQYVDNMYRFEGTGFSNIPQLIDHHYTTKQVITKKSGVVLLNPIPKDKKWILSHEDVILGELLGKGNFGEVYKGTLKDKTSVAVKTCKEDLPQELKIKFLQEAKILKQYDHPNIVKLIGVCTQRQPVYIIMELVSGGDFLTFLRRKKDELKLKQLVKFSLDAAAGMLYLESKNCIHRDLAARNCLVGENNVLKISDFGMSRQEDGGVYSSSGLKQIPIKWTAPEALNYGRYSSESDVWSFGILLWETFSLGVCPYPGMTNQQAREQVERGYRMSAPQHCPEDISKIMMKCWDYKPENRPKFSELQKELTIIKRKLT", "test": "Inhibition of FER assessed as residual enzyme activity at 10 uM by radiometric protein kinase assay"}, "[20]": {"test": "Solubility of compound at pH 7.4", "format": "physicochemical", "settings": "buffer"}, "[21]": {"test": "Cytostatic activity in human U373 cells at 31 uM assessed global growth ratio after 72 hrs by quantitative video microscopy", "format": "functional, U-373MG ATCC"}, "[22]": {"test": "Cytostatic activity in human U373 cells at 64 uM assessed global growth ratio after 72 hrs by quantitative video microscopy", "format": "functional, U-373MG ATCC"}, "[23]": {"test": "Cytostatic activity in human U373 cells at 18 uM assessed global growth ratio after 72 hrs by quantitative video microscopy", "format": "functional, U-373MG ATCC"}}, "note": "Calls of active or inactive are those of the source. The calls are words filed in the database; no cut-off is given here."}
{"smiles": "Cc1nccc2c1[nH]c1cc(OCc3cccnc3)ccc12", "values": [{"measurement": "IC50", "setting": "cells", "value": 24, "unit": "µM"}, {"measurement": "IC50", "setting": "OE33", "value": 31, "unit": "µM"}, {"measurement": "Ratio", "setting": "[1]", "value": 0.29}, {"measurement": "IC50", "setting": "Hs 683 [2]", "value": 30, "unit": "µM"}, {"measurement": "IC50", "setting": "[3]", "value": 28, "unit": "µM"}, {"measurement": "IC50", "setting": "[4]", "value": 10, "unit": "µM"}, {"measurement": "IC50", "setting": "T98G", "value": 29, "unit": "µM"}]}
{"smiles": "Cc1c2c(cc[n+]1Cc1ccc(F)cc1)c1ccc(OCc3cccc(F)c3)cc1n2Cc1cccc(F)c1.[Br-]", "values": [{"measurement": "Activity", "setting": "[5]", "value": 6, "unit": "%"}, {"measurement": "IC50", "setting": "cells", "value": 0.9, "unit": "µM"}, {"measurement": "Activity", "setting": "[6]", "value": "< 1", "unit": "%"}, {"measurement": "Ratio", "setting": "[7]", "value": 0.53}, {"measurement": "Activity", "setting": "[8]", "value": 7, "unit": "%"}, {"measurement": "Activity", "setting": "[9]", "value": 8, "unit": "%"}, {"measurement": "IC50", "setting": "OE33", "value": 3.4, "unit": "µM"}, {"measurement": "Activity", "setting": "[10]", "value": 1, "unit": "%"}, {"measurement": "IC50", "setting": "Hs 683 [2]", "value": 4.5, "unit": "µM"}, {"measurement": "IC50", "setting": "[3]", "value": 2.9, "unit": "µM"}, {"measurement": "Activity", "setting": "[11]", "value": 2, "unit": "%"}, {"measurement": "Activity", "setting": "[12]", "value": 10, "unit": "%"}, {"measurement": "Activity", "setting": "[13]", "value": 10, "unit": "%"}, {"measurement": "inhibition", "setting": "U-373MG ATCC", "value": "Active"}, {"measurement": "inhibition", "setting": "[14]", "value": "Active"}, {"measurement": "Activity", "setting": "[15]", "value": 2, "unit": "%"}, {"measurement": "inhibition", "setting": "[16]", "value": "Active"}, {"measurement": "inhibition", "setting": "Hs 683 [17]", "value": "Active"}, {"measurement": "Activity", "setting": "Mus musculus", "value": "Non-toxic"}, {"measurement": "Activity", "setting": "[18]", "value": 6, "unit": "%"}, {"measurement": "Activity", "setting": "[19]", "value": 7, "unit": "%"}, {"measurement": "solubility", "setting": "[20]", "value": 53, "unit": "µM"}, {"measurement": "IC50", "setting": "T98G", "value": 1.9, "unit": "µM"}]}
{"smiles": "Cc1nccc2c3ccc(OCC4CCCCC4)cc3n(CC3CCCCC3)c12", "values": [{"measurement": "IC50", "setting": "cells", "value": 31, "unit": "µM"}, {"measurement": "Ratio", "setting": "[21]", "value": 0.17}, {"measurement": "IC50", "setting": "OE33", "value": 15, "unit": "µM"}, {"measurement": "IC50", "setting": "Hs 683 [2]", "value": 30, "unit": "µM"}, {"measurement": "IC50", "setting": "[3]", "value": 17, "unit": "µM"}, {"measurement": "IC50", "setting": "[4]", "value": "> 10", "unit": "µM"}, {"measurement": "IC50", "setting": "T98G", "value": 32, "unit": "µM"}]}
{"smiles": "COCCOc1ccc2c(c1)[nH]c1c(C)nccc12", "values": [{"measurement": "IC50", "setting": "cells", "value": 64, "unit": "µM"}, {"measurement": "IC50", "setting": "OE33", "value": 66, "unit": "µM"}, {"measurement": "IC50", "setting": "Hs 683 [2]", "value": 53, "unit": "µM"}, {"measurement": "IC50", "setting": "[3]", "value": 53, "unit": "µM"}, {"measurement": "Ratio", "setting": "[22]", "value": 0.23}, {"measurement": "IC50", "setting": "[4]", "value": 16, "unit": "µM"}, {"measurement": "IC50", "setting": "T98G", "value": 61, "unit": "µM"}]}
{"smiles": "Cc1nccc2c3ccc(OCc4ccccc4)cc3n(Cc3ccccc3)c12", "values": [{"measurement": "IC50", "setting": "cells", "value": 18, "unit": "µM"}, {"measurement": "IC50", "setting": "OE33", "value": 40, "unit": "µM"}, {"measurement": "IC50", "setting": "Hs 683 [2]", "value": 33, "unit": "µM"}, {"measurement": "IC50", "setting": "[3]", "value": 28, "unit": "µM"}, {"measurement": "Ratio", "setting": "[23]", "value": 0.3}, {"measurement": "solubility", "setting": "[20]; read-out: solubility", "value": "< 3", "unit": "µM"}, {"measurement": "IC50", "setting": "T98G", "value": 36, "unit": "µM"}]}
{"smiles": "Cc1nccc2c1[nH]c1cc(OCc3cccc4ccccc34)ccc12", "values": [{"measurement": "IC50", "setting": "cells", "value": 7.4, "unit": "µM"}, {"measurement": "IC50", "setting": "OE33", "value": 8.2, "unit": "µM"}, {"measurement": "IC50", "setting": "Hs 683 [2]", "value": 19, "unit": "µM"}, {"measurement": "IC50", "setting": "[3]", "value": 33, "unit": "µM"}, {"measurement": "IC50", "setting": "T98G", "value": 12, "unit": "µM"}]}
{"smiles": "Cc1c2c(cc[n+]1Cc1ccccc1)c1ccc(OCc3cccc(F)c3)cc1n2Cc1cccc(F)c1", "values": [{"measurement": "IC50", "setting": "cells", "value": 0.8, "unit": "µM"}, {"measurement": "IC50", "setting": "OE33", "value": 2.9, "unit": "µM"}, {"measurement": "IC50", "setting": "Hs 683 [2]", "value": 2.8, "unit": "µM"}, {"measurement": "IC50", "setting": "[3]", "value": 0.4, "unit": "µM"}, {"measurement": "IC50", "setting": "T98G", "value": 0.97, "unit": "µM"}]}
